Assay results published in patent publication US7074447B2 (Laboratories Miret, S.A., priority 2001, dated 2006).

Assays:
[1] = tested on: Bacillus subtilis (CECT 356); assay: minimum inhibition concentration and Kull synergy index of LAE / potassium sorbate; format: cell-based; conditions: for SI, synergy index: <1 synergism, 1 addition, >1 antagonism
Protocol: The invention is now explained by a number of examples. In these examples LAE and sorbate alone and in a number of different combinations have been investigated against a number of bacterial preparations. For the analysis usually an internal method was used. Conditions and medium were Mueller Hinton broth (pH 7.4) or (pH 5.0) for bacteria, Sabouraud broth (pH 5.8) for yeast and Sabouraud medium for moulds. […] The interaction of the two components of the antimicrobial mixture is calculated according to the method described by Kull et al. (Kull […]. and Mayer R. L., Applied Microbiology, 1961; 6:538-541). According to this method the so-called synergy index is calculated according to the following formula: Synergy index […]. […] All indicated symbols indicate a particular concentration leading to a particular end point, in this case the inhibition of growth of Bacillus subtilis, so that the selected end point is in fact the minimal inhibitory concentration (mic).

[2] = tested on: Candida albicans (ATCC 10231); assay: as above; format: cell-based; conditions: for SI, synergy index: <1 synergism, 1 addition, >1 antagonism
Protocol: The invention is now explained by a number of examples. In these examples LAE and sorbate alone and in a number of different combinations have been investigated against a number of bacterial preparations. For the analysis usually an internal method was used. […] The interaction of the two components of the antimicrobial mixture is calculated according to the method described by Kull et al. (Kull […]. and Mayer R. L., Applied Microbiology, 1961; 6:538-541). According to this method the so-called synergy index is calculated according to the following formula: Synergy index […]. […] The same method was used as described for example 1. […] Again the effects of the components alone and in combination have been calculated using the same method as described at Example 1.

[3] = pH 7.4, propylene glycol solutions

CCCCCCCCCCCC(=O)N[C@@H](CCCNC(=N)N)C(=O)OCC.Cl [LAE, L-arginine, N^α-lauroyl-ethylester monohydrochloride]
0.00: Qs/QS ([1]; pH 5.0) | Qs/QS [1, 3] | Qs/QS ([2]; pH 5.0) | Qs, minimum inhibition concentration of potassium sorbate in the mixture ([2]; pH 7.4, aqueous solutions) | Qs/QS ([2]; pH 7.4, aqueous solutions)
29.3: QLAE, minimum inhibition concentration of LAE as single antimicrobial ([1]; pH 5.0) | Qlae, minimum inhibition concentration of LAE in the mixture ([1]; pH 5.0) | QLAE, minimum inhibition concentration of LAE as single antimicrobial ([2]; pH 5.0) | Qlae, minimum inhibition concentration of LAE in the mixture ([2]; pH 5.0)
0: Qs, minimum inhibition concentration of potassium sorbate in the mixture ([1]; pH 5.0) | Qs, minimum inhibition concentration of potassium sorbate in the mixture [1, 3] | Qs, minimum inhibition concentration of potassium sorbate in the mixture ([2]; pH 5.0)
25.60: QLAE, minimum inhibition concentration of LAE as single antimicrobial ([2]; pH 7.4, aqueous solutions) | Qlae, minimum inhibition concentration of LAE in the mixture ([2]; pH 7.4, aqueous solutions)
1.00: Qlae/QLAE ([1]; pH 5.0) | SI, synergy index ([1]; pH 5.0) | Qlae/QLAE [1, 3] | SI, synergy index [1, 3] | Qlae/QLAE ([2]; pH 5.0) | SI, synergy index ([2]; pH 5.0) | Qlae/QLAE ([2]; pH 7.4, aqueous solutions) | SI, synergy index ([2]; pH 7.4, aqueous solutions)
12.8: QLAE, minimum inhibition concentration of LAE as single antimicrobial [1, 3] | Qlae, minimum inhibition concentration of LAE in the mixture [1, 3]
